Results as given in patent US20240090503A1, “FUNGICIDAL OXADIAZOLES AND THEIR MIXTURES” (FMC CORPORATION, priority 2020, published 2024).

Legend:
[1] = test system: Puccinia recondita f. sp. tritici (the causal agent of wheat leaf rust); assay: Test C: preventive spray on wheat seedlings, wheat leaf rust, visual disease rating; format: in vivo; conditions: wheat seedlings
Outline: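 Wheat seedlings sprayed to run-off with compound in acetone/water (50/50) with 250 ppm PEG400, then inoculated with spores the following day. After 24 h saturated humidity at 20° C. and 6 days in growth chamber at 20° C., disease rated visually as % control relative to untreated controls.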

[2] = test system: Phakopsora pachyrhizi (the causal agent of Asian soybean rust); assay: Test A: preventive spray on soybean seedlings, Asian soybean rust, visual disease rating; format: in vivo; conditions: soybean seedlings
Outline: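 Compound in acetone/water (50/50) with 250 ppm PEG400 sprayed to run-off on soybean seedlings; inoculated next day with Phakopsora pachyrhizi spores. Held 24 h at 22° C in saturated atmosphere, then 8 days in a 22° C growth chamber before visual rating as % disease control relative to controls.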

[3] = test suspension 10 ppm, 100 = 100% disease control, 0 = no control
[4] = 10 ppm test suspension, 100 = 100% disease control, 0 = no control
[5] = 50 ppm test suspension, 100 = 100% disease control, 0 = no control

COC(=O)c1cccc2c1cnn2Cc1ccc(-c2noc(C(F)(F)F)n2)cc1 [compound 341]
Test C disease control rating ([1]; test suspension 10 ppm): 100% | Test A disease control rating [2, 3]: 100%

C[Si](C)(C)C#CCOC(=O)c1cnn(Cc2ccc(-c3noc(C(F)(F)F)n3)cc2)c1 [compound 348]
Test C disease control rating ([1]; test suspension 10 ppm): 96% | Test A disease control rating [2, 3]: 100%

CC(=O)COC(=O)c1cnn(Cc2ccc(-c3noc(C(F)(F)F)n3)cc2)c1 [compound 349]
Test C disease control rating ([1]; test suspension 10 ppm): 100% | Test A disease control rating [2, 3]: 100%

CON=C(C)COC(=O)c1cnn(Cc2ccc(-c3noc(C(F)(F)F)n3)cc2)c1 [compound 350]
Test C disease control rating ([1]; test suspension 10 ppm): 99% | Test A disease control rating [2, 3]: 100%

FC(F)(F)c1nc(-c2ccc(CN3CCc4ccccc4C3)cc2)no1 [compound 351]
Test C disease control rating ([1]; test suspension 10 ppm): 67% | Test A disease control rating [2, 3]: 92%

FC(F)(F)c1nc(-c2ccc(CCCn3ccc(-c4ccccc4)n3)cc2)no1 [compound 360]
Test C disease control rating ([1]; test suspension 10 ppm): 68% | Test A disease control rating [2, 3]: 100%

FC(F)(F)c1nc(-c2ccc(CCCn3ccc(-c4ccc(Cl)cc4)n3)cc2)no1 [compound 361]
Test C disease control rating ([1]; test suspension 10 ppm): 0% | Test A disease control rating [2, 3]: 100%

CCOC(=O)c1cnn(COCc2ccc(-c3noc(C(F)(F)F)n3)cc2)c1 [compound 362]
Test C disease control rating ([1]; test suspension 50 ppm): 100% | Test A disease control rating ([2]; test suspension 50 ppm): 100%

O=C(O)c1cnn(CCCc2ccc(-c3noc(C(F)(F)F)n3)cc2)c1 [compound 363]
Test C disease control rating ([1]; test suspension 50 ppm): 100% | Test A disease control rating ([2]; test suspension 50 ppm): 100%

CCOC(=O)C1=NOC(Cc2ccc(-c3noc(C(F)(F)F)n3)s2)C1 (centres unmarked) [compound 366]
Test C disease control rating ([1]; test suspension 50 ppm): 100% | Test A disease control rating ([2]; test suspension 50 ppm): 100%

O=C(O)C1=NOC(Cc2ccc(-c3noc(C(F)(F)F)n3)s2)C1 (centres unmarked) [compound 367]
Test C disease control rating ([1]; test suspension 50 ppm): 67% | Test A disease control rating ([2]; test suspension 50 ppm): 96%

CNC(=O)C1=NOC(Cc2ccc(-c3noc(C(F)(F)F)n3)s2)C1 (centres unmarked) [compound 368]
Test C disease control rating ([1]; test suspension 50 ppm): 100% | Test A disease control rating ([2]; test suspension 50 ppm): 100%

CCNC(=O)C1=NOC(Cc2ccc(-c3noc(C(F)(F)F)n3)s2)C1 (centres unmarked) [compound 369]
Test C disease control rating ([1]; test suspension 50 ppm): 100% | Test A disease control rating ([2]; test suspension 50 ppm): 100%

C#CCOC(=O)c1cnn(CCCc2ccc(-c3noc(C(F)(F)F)n3)cc2)c1 [compound 374]
Test C disease control rating ([1]; test suspension 10 ppm): 96% | Test A disease control rating [2, 3]: 100%

Cc1ccc(F)cc1OCc1ccc(-c2noc(C(F)(F)F)n2)s1 [compound 375]
Test C disease control rating ([1]; test suspension 10 ppm): 98% | Test A disease control rating [2, 3]: 100%

CCOC(=O)CNC(=O)c1cnn(Cc2ccc(-c3noc(C(F)(F)F)n3)cc2)c1 [compound 378]
Test C disease control rating ([1]; test suspension 10 ppm): 98% | Test A disease control rating [2, 3]: 100%

CN(CC#N)C(=O)c1cnn(Cc2ccc(-c3noc(C(F)(F)F)n3)cc2)c1 [compound 379]
Test C disease control rating [1, 4]: 97% | Test A disease control rating [2, 4]: 100%

CCONC(=O)c1cnn(Cc2ccc(-c3noc(C(F)(F)F)n3)cc2)c1 [compound 380]
Test C disease control rating [1, 4]: 100% | Test A disease control rating [2, 4]: 100%

Nc1cnn(Cc2ccc(-c3noc(C(F)(F)F)n3)cc2)c1 [compound 381]
Test C disease control rating [1, 4]: 0% | Test A disease control rating [2, 4]: 0%

O=[N+]([O-])c1cnn(Cc2ccc(-c3noc(C(F)(F)F)n3)cc2)c1 [compound 382]
Test C disease control rating [1, 4]: 96% | Test A disease control rating [2, 4]: 100%

FC(F)(F)c1nc(-c2ccc(Cn3cc(I)cn3)cc2)no1 [compound 383]
Test C disease control rating [1, 4]: 68% | Test A disease control rating [2, 4]: 71%

CCON=Cc1cnn(Cc2ccc(-c3noc(C(F)(F)F)n3)cc2)c1 [compound 384]
Test C disease control rating [1, 4]: 100% | Test A disease control rating [2, 4]: 100%

CCCON=Cc1cnn(Cc2ccc(-c3noc(C(F)(F)F)n3)cc2)c1 [compound 385]
Test C disease control rating [1, 4]: 100% | Test A disease control rating [2, 4]: 100%

C=CCON=Cc1cnn(Cc2ccc(-c3noc(C(F)(F)F)n3)cc2)c1 [compound 386]
Test C disease control rating [1, 4]: 100% | Test A disease control rating [2, 4]: 100%

C#CCON=Cc1cnn(Cc2ccc(-c3noc(C(F)(F)F)n3)cc2)c1 [compound 387]
Test C disease control rating [1, 4]: 99% | Test A disease control rating [2, 4]: 100%

CC(C)ON=Cc1cnn(Cc2ccc(-c3noc(C(F)(F)F)n3)cc2)c1 [compound 388]
Test C disease control rating [1, 4]: 100% | Test A disease control rating [2, 4]: 100%

CC(=O)NN=Cc1cnn(Cc2ccc(-c3noc(C(F)(F)F)n3)cc2)c1 [compound 389]
Test C disease control rating [1, 4]: 100% | Test A disease control rating [2, 4]: 100%

CS(=O)(=O)CCOC(=O)c1cnn(Cc2ccc(-c3noc(C(F)(F)F)n3)cc2)c1 [compound 390]
Test C disease control rating [1, 4]: 100% | Test A disease control rating [2, 4]: 100%

CCOC(CC(=O)c1cnn(Cc2ccc(-c3noc(C(F)(F)F)n3)cc2)c1)OCC [compound 391]
Test C disease control rating [1, 4]: 100% | Test A disease control rating [2, 4]: 100%

O=C(OCC(F)F)c1cnn(Cc2ccc(-c3noc(C(F)(F)F)n3)cc2)c1 [compound 392]
Test C disease control rating [1, 4]: 100% | Test A disease control rating [2, 4]: 100%

CN(C)C(=O)c1cnn(CCCc2ccc(-c3noc(C(F)(F)F)n3)cc2)c1 [compound 406]
Test C disease control rating [1, 4]: 93% | Test A disease control rating [2, 4]: 100%

Nc1ncnc2c1cnn2Cc1ccc(-c2noc(C(F)(F)F)n2)cc1 [compound 407]
Test C disease control rating [1, 4]: 100% | Test A disease control rating [2, 4]: 100%

FC(F)(F)c1nc(-c2ccc(Cn3ncc4ncccc43)cc2)no1 [compound 408]
Test C disease control rating [1, 4]: 100% | Test A disease control rating [2, 4]: 100%

FC(F)(F)c1nc(-c2ccc(Cn3cc4ncccc4n3)cc2)no1 [compound 409]
Test C disease control rating [1, 4]: 100% | Test A disease control rating [2, 4]: 100%

CCCCOC(=O)c1cnn(Cc2ccc(-c3noc(C(F)(F)F)n3)cc2)c1 [compound 410]
Test C disease control rating [1, 4]: 100% | Test A disease control rating [2, 4]: 100%

O=C(OCC1CC1)c1cnn(Cc2ccc(-c3noc(C(F)(F)F)n3)cc2)c1 [compound 411]
Test C disease control rating [1, 4]: 100% | Test A disease control rating [2, 4]: 100%

O=C(OCc1ccccc1)c1cnn(Cc2ccc(-c3noc(C(F)(F)F)n3)cc2)c1 [compound 412]
Test C disease control rating [1, 4]: 100% | Test A disease control rating [2, 4]: 100%

FC(F)(F)c1nc(-c2ccc(Cn3ncc4cc(Br)cnc43)cc2)no1 [compound 413]
Test C disease control rating [1, 4]: 68% | Test A disease control rating [2, 4]: 100%

FC(F)(F)c1nc(-c2ccc(Cn3cc4cc(Br)cnc4n3)cc2)no1 [compound 414]
Test C disease control rating [1, 4]: 100% | Test A disease control rating [2, 4]: 100%

CNC(=O)c1cnn(CCCc2ccc(-c3noc(C(F)(F)F)n3)cc2)c1 [compound 415]
Test C disease control rating [1, 4]: 96% | Test A disease control rating [2, 4]: 100%

CCCOC(=O)c1cnn(Cc2ccc3cc(-c4noc(C(F)(F)F)n4)ccc3c2)c1 [compound 416]
Test C disease control rating [1, 5]: 0% | Test A disease control rating [2, 5]: 77%

N#Cc1cccn(Cc2ccc(-c3noc(C(F)(F)F)n3)cc2)c1=O [compound 417]
Test C disease control rating [1, 4]: 100% | Test A disease control rating [2, 4]: 100%

CCOC(=O)c1cncn(Cc2ccc(-c3noc(C(F)(F)F)n3)cc2)c1=O [compound 418]
Test C disease control rating [1, 4]: 99% | Test A disease control rating [2, 4]: 100%

CCOC(=O)c1cn(Cc2ccc(-c3noc(C(F)(F)F)n3)cc2)c(=O)cn1 [compound 419]
Test C disease control rating [1, 4]: 99% | Test A disease control rating [2, 4]: 96%

COC(=O)c1ccc(=O)n(Cc2ccc(-c3noc(C(F)(F)F)n3)cc2)c1 [compound 420]
Test C disease control rating [1, 4]: 100% | Test A disease control rating [2, 4]: 100%

COc1ccn(Cc2ccc(-c3noc(C(F)(F)F)n3)cc2)c(=O)c1 [compound 421]
Test C disease control rating [1, 4]: 100% | Test A disease control rating [2, 4]: 100%

COC(=O)c1cccn(Cc2ccc(-c3noc(C(F)(F)F)n3)cc2)c1=O [compound 422]
Test C disease control rating [1, 4]: 93% | Test A disease control rating [2, 4]: 90%

COC(=O)c1nccn(Cc2ccc(-c3noc(C(F)(F)F)n3)cc2)c1=O [compound 423]
Test C disease control rating [1, 4]: 80% | Test A disease control rating [2, 4]: 86%

CCOC(=O)c1cnn(Cc2ccc(-c3noc(C(F)(F)F)n3)cn2)c1 [compound 424]
Test C disease control rating [1, 4]: 96% | Test A disease control rating [2, 4]: 100%

COC(=O)c1cnn(CCCc2ccc(-c3noc(C(F)(F)F)n3)cc2)c1 [compound 427]
Test C disease control rating [1, 5]: 67% | Test A disease control rating [2, 5]: 100%

CCOC(=O)c1cnn(CCCc2ccc(-c3noc(C(F)(F)F)n3)cc2)c1 [compound 428]
Test C disease control rating [1, 5]: 100% | Test A disease control rating [2, 5]: 100%

C#CCNC(=O)C1=NOC(Cc2ccc(-c3noc(C(F)(F)F)n3)s2)C1 (centres unmarked) [compound 429]
Test C disease control rating [1, 5]: 100% | Test A disease control rating [2, 5]: 100%

CCN(CC)C(=O)C1=NOC(Cc2ccc(-c3noc(C(F)(F)F)n3)s2)C1 (centres unmarked) [compound 430]
Test C disease control rating [1, 5]: 100% | Test A disease control rating [2, 5]: 100%

CCOC(=O)C1(Cc2ccc(-c3noc(C(F)(F)F)n3)cc2)CCNC1=O (centres unmarked) [compound 431]
Test C disease control rating [1, 5]: 98% | Test A disease control rating [2, 5]: 99%

CCOC(=O)C1(Cc2ccc(-c3noc(C(F)(F)F)n3)cc2)CCCNC1=O (centres unmarked) [compound 432]
Test C disease control rating [1, 5]: 92% | Test A disease control rating [2, 5]: 100%
